Patent US9802960B2 (MILLENNIUM PHARMACEUTICALS, INC., priority 2014, dated 2017)

Biological target: Human VPS34 (Homo sapiens (Human), UniProt Q8NEB9)
Assay: Human VPS34 enzyme assay (Adapta TR-FRET)
Type: biochemical
Conditions: for inhibition at 1.11 µM: read-out: Percent Inhibition

Chain of Human VPS34 (Q8NEB9 whole entry): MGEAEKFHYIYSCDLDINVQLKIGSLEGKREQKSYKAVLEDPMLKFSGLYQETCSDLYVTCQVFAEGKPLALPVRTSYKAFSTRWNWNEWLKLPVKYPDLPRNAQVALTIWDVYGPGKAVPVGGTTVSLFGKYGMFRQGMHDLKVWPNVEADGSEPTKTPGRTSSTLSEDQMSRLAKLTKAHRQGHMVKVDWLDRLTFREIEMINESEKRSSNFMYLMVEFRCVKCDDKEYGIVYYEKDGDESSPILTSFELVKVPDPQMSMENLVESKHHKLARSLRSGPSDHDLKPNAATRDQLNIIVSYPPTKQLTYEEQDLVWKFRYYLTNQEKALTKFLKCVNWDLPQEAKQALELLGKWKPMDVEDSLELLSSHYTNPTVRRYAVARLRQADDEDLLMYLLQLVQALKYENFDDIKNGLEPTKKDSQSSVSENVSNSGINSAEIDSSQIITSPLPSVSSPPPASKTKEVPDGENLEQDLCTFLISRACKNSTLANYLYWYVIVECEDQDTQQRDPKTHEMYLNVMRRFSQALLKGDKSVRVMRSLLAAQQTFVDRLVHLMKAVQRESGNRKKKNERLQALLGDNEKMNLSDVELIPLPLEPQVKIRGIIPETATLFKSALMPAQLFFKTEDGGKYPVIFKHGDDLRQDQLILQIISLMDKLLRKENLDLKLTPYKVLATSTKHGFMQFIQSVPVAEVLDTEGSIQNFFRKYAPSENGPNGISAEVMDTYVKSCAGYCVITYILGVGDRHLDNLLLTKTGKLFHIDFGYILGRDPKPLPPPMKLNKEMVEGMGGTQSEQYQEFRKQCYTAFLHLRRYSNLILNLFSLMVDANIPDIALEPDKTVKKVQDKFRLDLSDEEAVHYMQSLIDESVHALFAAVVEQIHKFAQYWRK

Structure (SMILES) | inhibition at 1.11 µM (compound concentration 1.11 μM) [%] | further results
Cc1nccc(Nc2cc(-c3cnc(O)c(S(=O)(=O)NC4CCC4)c3)ccn2)n1 [Compound I-279, N-cyclobutyl-6-hydroxy-2′-[(2-methylpyrimidin-4-yl)amino]-3,4′-bipyridine-5-sulfonamide] | 93 | 
Cc1nccc(Nc2cc(-c3cnc(C)c(C(N)=O)c3)ccn2)n1 [Compound I-280, 6-methyl-2′-[(2-methylpyrimidin-4-yl)amino]-3,4′-bipyridine-5-carboxamide] | 83 | 
Cc1ncc(-c2ccnc(N)c2)cc1NS(=O)(=O)N(C)C [Compound I-281, N′-(2′-amino-6-methyl-3,4′-bipyridin-5-yl)-N,N-dimethylsulfuric diamide] | 40 | 
CC(=O)Nc1cc(-c2cnc(N(C)C)c(C(=O)NC34CC(C3)C4)c2)ccn1 [Compound I-283, 2′-Acetamido-N-(bicyclo[1.1.1]pent-1-yl)-6-(dimethylamino)-3,4′-bipyridine-5-carboxamide] | > 99 | 
CN(C)c1ncc(-c2ccnc(Nc3ccncn3)c2)cc1C(=O)N(C)C12CC(C1)C2 [Compound I-284, N-(bicyclo[1.1.1]pent-1-yl)-6-(dimethylamino)-N-methyl-2′-(pyrimidin-4-ylamino)-3,4′-bipyridine-5-carboxamide] | > 99 | 
Cc1nccc(Nc2cc(-c3cnc(C)c(C(=O)NCC4CC4)c3)ccn2)n1 [Compound I-285, N-(cyclopropylmethyl)-6-methyl-2′-((2-methylpyrimidin-4-yl)amino)-[3,4′-bipyridine]-5-carboxamide] | 85 | 
Cc1c(-c2ccnc(N)c2)cnc(Cl)c1NS(=O)(=O)c1ccc(F)cc1F [Compound I-287, N-(2′-amino-6-chloro-4-methyl-3,4′-bipyridin-5-yl)-2,4-difluorobenzenesulfonamide] |  | Percent Inhibition (compound concentration 1.11 μM): 91%
Cc1nccc(Nc2cc(-c3cnc(C)c(N4CCCN(C)S4(=O)=O)c3)ccn2)n1 [Compound I-288, 6-methyl-5-(6-methyl-1,1-dioxido-1,2,6-thiadiazinan-2-yl)-N-(2-methylpyrimidin-4-yl)-3,4′-bipyridin-2′-amine] | 91 | 
CC(=O)Nc1cc(-c2cnc(Cl)c(NS(=O)(=O)c3ccc(F)cc3Cl)c2C)ccn1 [Compound I-290, N-(6-chloro-5-{[(2-chloro-4-fluorophenyl)sulfonyl]amino}-4-methyl-3,4′-bipyridin-2′-yl)acetamide] | > 99 | 
Cc1ncc(-c2ccnc(Nc3ccnc(C(F)(F)F)n3)c2)cc1C(=O)N1CCC1 [Compound I-292, azetidin-1-yl(6-methyl-2′-{[2-(trifluoromethyl)pyrimidin-4-yl]amino}-3,4′-bipyridin-5-yl)methanone] | 99 | 
Cc1ccnc(Nc2cc(-c3cnc(Cl)c(NS(=O)(=O)c4ccc(F)cc4F)c3C)ccn2)n1 [Compound I-293, N-{6-chloro-4-methyl-2′-[(4-methylpyrimidin-2-yl)amino]-3,4′-bipyridin-5-yl}-2,4-difluorobenzene sulfonamide] | > 99 | 
Cc1nccc(Nc2cc(-c3cnc(Cl)c(NS(=O)(=O)c4ccc(F)cc4F)c3C)c(F)cn2)n1 [Compound I-294, N-{6-chloro-5′-fluoro-4-methyl-2′-[(2-methylpyrimidin-4-yl)amino]-3,4′-bipyridin-5-yl}-2,4-difluorobenzenesulfonamide] | 94 | 
Cc1nccc(Nc2cc(-c3cnc(Cl)c(NC(=O)c4ccc(F)cc4F)c3C)ccn2)n1 [Compound I-295, N-{6-chloro-4-methyl-2′-[(2-methylpyrimidin-4-yl)amino]-3,4′-bipyridin-5-yl}-2,4-difluorobenzamide] | 80 | 
Nc1ncc(-c2ccnc(Nc3ccncn3)c2)cc1C(=O)NC12CC(C1)C2 [Compound I-298, 6-amino-N-(bicyclo[1.1.1]pent-1-yl)-2′-(pyrimidin-4-ylamino)-3,4′-bipyridine-5-carboxamide] | 99 | 
Cc1c(-c2ccnc(Nc3ncc(C#N)cn3)c2)cnc(Cl)c1NS(=O)(=O)c1ccc(F)cc1F [Compound I-300, N-{6-chloro-2′-[(5-cyanopyrimidin-2-yl)amino]-4-methyl-3,4′-bipyridin-5-yl}-2,4-difluorobenzene sulfonamide] | 96 | 
CCN(CC)C(=O)c1cc(-c2ccnc(Nc3ccnc(C)n3)c2)cnc1C [Compound I-302, N,N-diethyl-6-methyl-2′-[(2-methylpyrimidin-4-yl)amino]-3,4′-bipyridine-5-carboxamide] | 83 | 
CN(C(=O)c1cc(-c2ccnc(Nc3ccncn3)c2)cnc1N)C12CC(C1)C2 [Compound I-303, 6-amino-N-(bicyclo[1.1.1]pent-1-yl)-N-methyl-2′-(pyrimidin-4-ylamino)-3,4′-bipyridine-5-carboxamide] | 95 | 
Cc1nccc(Nc2cc(-c3cnc(C)c(C(=O)N4CCC4)c3)ccn2)n1 [Compound I-304, Azetidin-1-yl(6-methyl-2′-((2-methylpyrimidin-4-yl)amino)-3,4′-bipyridin-5-yl)methanone] | 96 | 
Cc1nccc(Nc2cc(-c3cnc(N(C)C)c(C(=O)N(C)C45CC(C4)C5)c3)ccn2)n1 [Compound I-306, N-(bicyclo[1.1.1]pent-1-yl)-6-(dimethylamino)-N-methyl-2′-((2-methylpyrimidin-4-yl)amino)-3,4′-bipyridine-5-carboxamide] | > 99 | 
Cc1c(-c2ccnc(Nc3ccncn3)c2)cnc(Cl)c1NS(=O)(=O)c1ccccc1 [Compound I-309, N-[6-chloro-4-methyl-2′-(pyrimidin-4-ylamino)-3,4′-bipyridin-5-yl]benzenesulfonamide] | 99 | 
Cc1ncc(-c2ccnc(NC(=O)C3CC3)c2)cc1NS(=O)(=O)N(C)C [Compound I-311, N-{5-[(dimethylsulfamoyl)amino]-6-methyl-3,4′-bipyridin-2′-yl}cyclopropanecarboxamide] | > 99 | 
CC(=O)Nc1cc(-c2cnc(Cl)c(NS(=O)(=O)c3ccccc3)c2C)ccn1 [Compound I-312, N-{6-chloro-4-methyl-5-[(phenylsulfonyl)amino]-3,4′-bipyridin-2′-yl}acetamide] | > 99 | 
Cc1ncc(-c2ccnc(NC(=O)N3CCCC3)c2)cc1NS(=O)(=O)c1ccc(F)cc1F [Compound I-313, N-(5-{[(2,4-difluorophenyl)sulfonyl]amino}-6-methyl-3,4′-bipyridin-2′-yl)pyrrolidine-1-carboxamide] | 88 | 
Cc1nccc(Nc2cc(-c3cnc(Cl)c(N(C)C)c3C)ccn2)n1 [Compound I-314, 6-chloro-N5,N5,4-trimethyl-N2′-(2-methylpyrimidin-4-yl)-3,4′-bipyridine-2′,5-diamine] | 91 | 
Cc1nccc(Nc2cc(-c3cnc(C)c(C(=O)N4CCCC4)c3)ccn2)n1 [Compound I-315, {6-methyl-2′-[(2-methylpyrimidin-4-yl)amino]-3,4′-bipyridin-5-yl}(pyrrolidin-1-yl)methanone] | 92 | 

The next lines start with results.

inhibition at 1.11 µM (compound concentration 1.11 μM) [%] | Structure (SMILES) | further results
94 | Cc1c(-c2ccnc(Nc3ccncn3)c2)cnc(Cl)c1NS(=O)(=O)c1ccc(F)cc1F [Compound I-282, N-[6-chloro-4-methyl-2′-(pyrimidin-4-ylamino)-3,4′-bipyridin-5-yl]-2,4-difluorobenzenesulfonamide] | 
> 99 | Cc1nccc(Nc2cc(-c3cnc(C)c(NS(=O)(=O)N(C)C)c3)ccn2)n1 [Compound I-286, N,N-dimethyl-N-{6-methyl-2′-[(2-methylpyrimidin-4-yl)amino]-3,4′-bipyridin-5-yl}sulfuric diamide] | 
> 99 | Cc1nc(Nc2cc(-c3cnc(C)c(NS(=O)(=O)c4ccc(F)cc4F)c3)ccn2)ccc1C#N [Compound I-289, N-{2′-[(5-cyano-6-methylpyridin-2-yl)amino]-6-methyl-3,4′-bipyridin-5-yl}-2,4-difluorobenzene sulfonamide] | 
95 | Cc1nccc(Nc2cc(-c3cnc(C)c(NS(=O)(=O)c4ccc(F)cc4F)c3)ccn2)n1 [Compound I-291, 2,4-difluoro-N-{6-methyl-2′-[(2-methylpyrimidin-4-yl)amino]-3,4′-bipyridin-5-yl}benzenesulfonamide] | IC50 (IC50 range class): < 0.01 µM
90 | Cc1c(-c2ccnc(Nc3ccnc(C4CC4)n3)c2)cnc(Cl)c1NS(=O)(=O)c1ccc(F)cc1F [Compound I-296, N-{6-chloro-2′-[(2-cyclopropylpyrimidin-4-yl)amino]-4-methyl-3,4′-bipyridin-5-yl}-2,4-difluorobenzene sulfonamide] | 
> 99 | Cc1ncc(-c2ccnc(Nc3ccccn3)c2)cc1NS(=O)(=O)c1ccc(F)cc1F [Compound I-297, 2,4-difluoro-N-[6-methyl-2′-(pyridin-2-ylamino)-3,4′-bipyridin-5-yl]benzenesulfonamide] | 
98 | Cc1nccc(Nc2cc(-c3cnc(Cl)c(NS(=O)(=O)c4ccc(F)cc4F)c3C)ccn2)n1 [Compound I-299, N-{6-chloro-4-methyl-2′-[(2-methylpyrimidin-4-yl)amino]-3,4′-bipyridin-5-yl}-2,4-difluorobenzenesulfonamide] | 
96 | Cc1ncc(-c2ccnc(Nc3ccn(C)n3)c2)cc1NS(=O)(=O)c1ccc(F)cc1F [Compound I-301, 2,4-difluoro-N-{6-methyl-2′-[(1-methyl-1H-pyrazol-3-yl)amino]-3,4′-bipyridin-5-yl}benzenesulfonamide] | 
94 | Cc1ncc(-c2ccnc(NC(=O)C3CCC3)c2)cc1NS(=O)(=O)c1ccc(F)cc1F [Compound I-305, N-(5-{[(2,4-difluorophenyl)sulfonyl]amino}-6-methyl-3,4′-bipyridin-2′-yl)cyclobutanecarboxamide] | 
> 99 | Cc1ccc(Nc2cc(-c3cnc(C)c(NS(=O)(=O)c4ccc(F)cc4F)c3)ccn2)nn1 [Compound I-307, 2,4-difluoro-N-{6-methyl-2′-[(6-methylpyridazin-3-yl)amino]-3,4′-bipyridin-5-yl}benzenesulfonamide] | 
> 99 | Cc1ncc(-c2ccnc(Nc3cnccn3)c2)cc1NS(=O)(=O)c1ccc(F)cc1F [Compound I-310, 2,4-difluoro-N-[6-methyl-2′-(pyrazin-2-ylamino)-3,4′-bipyridin-5-yl]benzenesulfonamide] | 
